What was measured:
[1] = molecular target: T1, Human immunodeficiency virus type 1 integrase (Human immunodeficiency virus 1, UniProt Q7ZJM1); assay: Inhibition of HIV1 integrase strand transfer activity
[2] = molecular target: T1, Human immunodeficiency virus type 1 integrase; assay: Inhibition of HIV1 integrase 3' processing activity

T1 sequence (Q7ZJM1 whole entry): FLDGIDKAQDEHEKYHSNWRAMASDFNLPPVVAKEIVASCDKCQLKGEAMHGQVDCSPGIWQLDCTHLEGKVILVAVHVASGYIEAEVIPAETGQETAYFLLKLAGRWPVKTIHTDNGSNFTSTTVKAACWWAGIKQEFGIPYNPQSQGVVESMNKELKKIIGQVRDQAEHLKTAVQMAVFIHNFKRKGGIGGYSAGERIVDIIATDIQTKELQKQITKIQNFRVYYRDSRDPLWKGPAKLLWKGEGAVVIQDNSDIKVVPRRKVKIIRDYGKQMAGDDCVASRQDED

SMILES	IC50 [1] [µM]	IC50 [2] [µM]
COc1ccc(/C=C2\C(=O)N(c3cccc(Br)c3)N=C2NC(=O)C(F)(F)F)cc1OCc1ccc(F)cc1	> 100	> 100
COc1ccc(/C=C2\C(=O)N(c3cccc(-c4ccccc4)c3)N=C2C(F)(F)F)cc1OCc1ccc(F)cc1	16	> 100
COc1ccc(/C=C2\C(=O)N(c3cccc(Br)c3)N=C2C(=O)O)cc1OCc1ccc(F)cc1	19	55
COc1ccc(/C=C2\C(=O)N(c3cccc(Br)c3)N=C2OC(C)=O)cc1OCc1ccc(F)cc1	100	> 100
COc1ccc(/C=C2\C(=O)N(c3ccc(I)cc3)N=C2C(F)(F)F)cc1OCc1ccc(F)cc1	69	> 100
COc1ccc(/C=C2\C(=O)N(c3nc4ccccc4s3)N=C2C(F)(F)F)cc1OCc1ccc(F)cc1	27	> 100
CCC1=NN(c2cccc(Br)c2)C(=O)/C1=C\c1ccc(OC)c(OCc2ccc(F)cc2)c1	> 100	> 100
COc1ccc(/C=C2\C(=O)N(c3cccc(F)c3)N=C2C(F)(F)F)cc1OCc1ccc(F)cc1	60	> 100
COc1ccc(/C=C2\C(=O)N(c3cccc(Br)c3)N=C2C)cc1OCc1ccc(F)cc1	> 100	> 100
O=C(O)C1=NN(c2cccc([N+](=O)[O-])c2)C(=O)/C1=C\c1ccc(OCc2ccc(F)cc2)c(O)c1	3	21
COc1ccc(/C=C2\C(=O)N(c3cccc([N+](=O)[O-])c3)N=C2C(=O)O)cc1Cc1ccc(F)cc1	11	15
COc1ccc(/C=C2\C(=O)N(c3ccccc3)N=C2C(F)(F)F)cc1OCc1ccc(F)cc1	> 100	> 100
COc1ccc(/C=C2\C(=O)N(c3cccc(Br)c3)N=C2COC(C)=O)cc1OCc1ccc(F)cc1	57	> 100
COc1ccc(/C=C2\C(=O)N(c3cccc(Br)c3)N=C2C(F)(F)F)cc1OCc1ccc(F)cc1	40	83
CCC(=O)OC1=NN(c2cccc(Br)c2)C(=O)/C1=C\c1ccc(OC)c(OCc2ccc(F)cc2)c1	88	> 100
COc1ccc(/C=C2\C(=O)N(c3ccc(C(=O)O)cc3)N=C2C(F)(F)F)cc1OCc1ccc(F)cc1	41	> 100

SMILES	IC50 [1] [µM]	IC50 [2] [µM]
COc1cc(/C=C2\C(=O)N(c3cccc(Br)c3)N=C2C(F)(F)F)cc(OC)c1OC	15	61
COc1ccc(/C=C2\C(=O)N(c3cccc(C)c3)N=C2C(F)(F)F)cc1OCc1ccc(F)cc1	> 100	> 100
COc1ccc(/C=C2\C(=O)N(c3ccc(NS(C)(=O)=O)cc3)N=C2C(F)(F)F)cc1OCc1ccc(F)cc1	> 100	> 100
COc1ccc(/C=C2\C(=O)N(c3cccc(Br)c3)N=C2C(F)(F)F)c(OC)c1OC	> 100	> 100
COc1ccc(/C=C2\C(=O)N(c3cccc(C(F)(F)F)c3)N=C2C(F)(F)F)cc1OCc1ccc(F)cc1	24	90
COc1ccc(/C=C2\C(=O)N(c3cc(Cl)cc(Cl)c3)N=C2C(F)(F)F)cc1OCc1ccc(F)cc1	12	> 100
COc1ccc(/C=C2\C(=O)N(c3cccc(I)c3)N=C2C(F)(F)F)cc1OCc1ccc(F)cc1	35	> 100
COc1ccc(/C=C2\C(=O)N(c3cccc([N+](=O)[O-])c3)N=C2C(=O)O)cc1OCc1ccc(F)cc1	14	60
COc1ccc(/C=C2\C(=O)N(c3cccc(Br)c3)N=C2C(F)(F)F)cc1OC	34	89
O=C1/C(=C\c2ccc(O)c(OCc3ccc(F)cc3)c2)C(C(F)(F)F)=NN1c1cccc(Br)c1	22	> 100
COc1ccc(/C=C2\C(=O)N(c3ccc(Br)cc3)N=C2C(F)(F)F)cc1OCc1ccc(F)cc1	25	82
COc1ccc(/C=C2\C(=O)N(c3cccc(Br)c3)N=C2C(F)(F)F)cc1Cc1ccc(F)cc1	11	21
COc1ccc(/C=C2\C(=O)N(c3cccc([N+](=O)[O-])c3)N=C2C(F)(F)F)cc1OCc1ccc(F)cc1	19	52
COc1ccc(/C=C2\C(=O)N(c3cccc(Cl)c3)N=C2C(F)(F)F)cc1OCc1ccc(F)cc1	30	88
COc1ccc(/C=C2\C(=O)N(c3cccc(Br)c3)N=C2C(F)(F)F)cc1OCc1cccc(Cl)c1F	30	50
O=C(O)C1=NN(c2cccc([N+](=O)[O-])c2)C(=O)/C1=C\c1ccc(O)c(OCc2ccc(F)cc2)c1	10	95

— ChEMBL document CHEMBL1268896, “Development of the next generation of HIV-1 integrase inhibitors: pyrazolone as a novel inhibitor scaffold” (Bioorg Med Chem Lett, 2010)
